Reference: PMC11593560 (International Journal of Molecular Sciences, 2024)

Target: T1, CAIX (Homo sapiens, UniProt Q16790)
T1 construct: gene CA9; hCAIX expressed in Xenopus oocytes; with rMCT4 (coexpressed)
Experiment: inhibition of CAIX-mediated increase in MCT4 transport (intracellular H+ microelectrodes, Xenopus oocytes)
Assay type: cell-based

- IC50: 89.9 ± 5.6 nM
Compound: O=C1NS(=O)(=O)c2cc(-n3cc(CCO[C@H]4O[C@@H](CO)[C@@H](O)[C@H](O)[C@@H]4O)nn3)ccc21 [BGal2C, Beta-Galactose-2C]
